Reference: patent US10780080B2, “Benzamide and active compound compositions and methods of use” (TRANSLATIONAL DRUG DEVELOPMENT, LLC, priority 2016, dated 2020)
“And” between values parts separate entries of the source, which are not always exact repeats. Identical values can stand only once. “Also recorded” adds a separate entry of the source. Each block holds one molecule with its values, some of them ahead of it.

How the values were obtained:
[1] = system: human acute leukemia cell line (HL-60); experiment: CellTiter-Glo cell viability assay, single agent growth inhibition; type: cell-based; conditions: HL-60, 72 hours treatment
Method: Cell viability in the presence of varying concentrations of the benzamide compounds at different time points was used to assess cytotoxicity and the effect of the compounds on cell proliferation.
Cell Viability Assay-Cell viability was measured by the CellTiter-Glo® cell viability assay Promega (Madison, Wis.). The CellTiter-Glo® Luminescent Cell Viability Assay is a homogeneous method to determine the number of viable cells in culture based on quantitation of the ATP present, which signals the presence of metabolically active cells. Following treatment, CellTiter-Glo® is added to treatment wells and incubated at 37° C. luminescence values were measured at using a Molecular Devices Spectramax microplate reader.
Single Agent Studies—Cells were grown to 70% confluency, trypsinized, counted, and seeded in 96 well flat-bottom plates at a final concentration of 2.5×10^3-5×10^3 cells/well (Day 0). Cells were allowed to incubate in growth media for 24 hours to allow for maximum adhesion. Treatment with the test agents or standard agents began on Day 1 and continued for 72 hours. At the 72-hour time point, treatment containing media was removed. Viable cell numbers are quantified by the CellTiter-Glo® cell viability assay as described above. Experiments were run with triplicate concentrations to determine growth inhibitory activity. Results from these studies were used to calculate an IC50 value (concentration of drug that inhibits cell growth by 50 percent of control) for each compound.
Data Collection—For single agent and combination studies, data from each experiment was collected and expressed as % Cell Growth using the following calculation: % Cell Growth=(ftest/fvehicle)×100
Where ftest is the luminescence of the tested sample, and fvehicle is the luminescence of the vehicle in which the drug is dissolved. Dose response graphs and IC50 values were generated using Prism 6 software (GraphPad).

[2] = solvents named in the value; cited from earlier work
[3] = system: intratumoral CD8 T-cells and natural killer cells; experiment: Intratumoral immune cells in tumor bearing mice; type: in vivo
CT-26 murine colon tumor = experiment: CT-26 tumor volume growth, ID #24 and anti-4-1BB; type: in vivo; conditions: Anti-m4-1BB 0.05 mg/kg IP QDx1, in mm³
cancer cell models = conditions: literature reports; cited from earlier work

IC50 [1]: 660 nM
SMILES: O=C(NO)c1ccc(Nc2nc3ccccc3n2C2CCCCCC2)cc1 [ID #26, 4-(1-cycloheptyl-1H-benzo[d]imidazol-2-ylamino)-N-hydroxybenzamide]

SMILES: Nc1ncn([C@@H]2O[C@H](CO)[C@@H](O)[C@H]2O)c(=O)n1 [Azacitidine, 4-amino-1-β-D-ribofuranozyl-s-triazin-2(1H)-one]
solubility [2]: insoluble in acetone, ethanol and methyl ketone; also recorded: slightly soluble in ethanol/water (50/50), propylene glycol and polyethylene glycol; also recorded: sparingly soluble in water, water-saturated octanol, 5% dextrose in water, N-methyl-2-pyrrolidone, normal saline and 5% Tween 80 in water; also recorded: soluble in dimethylsulfoxide (DMSO)

IC50 [1]: 1150 nM
SMILES: O=C(NO)c1ccc(Nc2nc3ccccc3n2CC2CCCCC2)cc1 [ID #24, 4-(1-(cyclohexylmethyl)-1H-benzo[d]imidazol-2-ylamino)-N-hydroxybenzamide]
numbers of intratumoral CD8 T-cells and natural killer cells [3]: increased numbers of intratumoral CD8 T-cells and natural killer cells | tumor volume, individual animal (ID 001-005) (CT-26 murine colon tumor; Day 1, Example #24 150.00 mg/kg PO QD to end): 85 | tumor volume, individual animal (ID 001-005) (CT-26 murine colon tumor; Day 5, Example #24 150.00 mg/kg PO QD to end): 73 | tumor volume, individual animal (ID 001-005) (CT-26 murine colon tumor; Day 8, Example #24 150.00 mg/kg PO QD to end): 65 | tumor volume, individual animal (ID 001-005) (CT-26 murine colon tumor; Day 9, Example #24 150.00 mg/kg PO QD to end): 65 | tumor volume, individual animal (ID 001-005) (CT-26 murine colon tumor; Day 12, Example #24 150.00 mg/kg PO QD to end): 68 and 590 | tumor volume, individual animal (ID 001-005) (CT-26 murine colon tumor; Day 14, Example #24 150.00 mg/kg PO QD to end): 67

SMILES: Nc1ncn([C@H]2C[C@H](O)[C@@H](CO)O2)c(=O)n1 [Decitabine, 4-amino-1-(2-deoxy-β-D-erythro-pentofuranosyl)-1,3,5-triazin-2(1H)one]
effects on cancer cells (cancer cell models): suppression of growth and apoptosis; also recorded: causes G2 arrest, reduces clonogenic survival, and inhibits growth in cells | solubility [2]: slightly soluble in ethanol/water (50/50), methanol/water (50/50) and methanol; also recorded: sparingly soluble in water; also recorded: soluble in dimethylsulfoxide (DMSO)

IC50 [1]: 3900 nM
SMILES: O=C(NO)c1ccc(Nc2nc3ccccc3n2C2CCCCC2)cc1 [ID #25, 4-(1-cyclohexyl-1H-benzo[d]imidazol-2-ylamino)-N-hydroxybenzamide]
